The values that follow come from patent US12622925B2 (priority 2018, dated 2026).

This series has as its system Hydra vulgaris. Type of series: in vivo. Conditions: results in 100% hydra mortality in 92 h. On the procedure:
Hydra vulgaris were obtained from Environment Canada (Montreal, Qc) and maintained at 18° C. The hydra classification method (Wilby, O. K., Tesh, J. M., & Shore, P. R., 1990) was used with modification to rate morphology of the adult hydra as an indicator of solution toxicity. In this assay, the scoring of hydra morphology is objective and repeatable with representation in detail in previous literature. The assay included monitoring times at shorter intervals during the first two days (0, 4, 20, and 28 h) and 24 h intervals for the last three days (44, 68, and 92 h). Solutions were not changed during testing. The hydra morphological response was scored and recorded after exposure of toxin with and without sorbent treatment. Mature and non-budding hydra in similar sizes were chosen for testing in order to minimize differences between samples. Controls for this experiment included hydra media. […] The score or average toxicity rating was determined by calculating the average score for morphological changes for a certain group at a specific time point.
FIG. 2 is a depiction of the hydra morphology scale by Wilby (1988): The scale is graded from 0-10, where 10 represents a normal living hydra and 0 represents a disintegrated hydra. The physiologic conditions of hydra were assessed with a dissecting microscope.

`C[C@H]1CCCC(=O)CCC/C=C/c2cc(O)cc(O)c2C(=O)O1` [ZEN, zearalenone]: the “minimal effective concentration (MEC)” value came to 4 ppm.
